Converted amounts (≈) assume the structure as drawn. Some results are limits rather than exact numbers.

As a reminder, the MIC is the smallest concentration in the dilution series that meets the test's criterion for growth inhibition. As usually defined, the IC50 is the concentration at which inhibition is half-maximal. For orientation: melting point means the temperature, or range, at which the solid turns liquid.

In data set [1] the test system is Aspergillus niger ATCC 6275. The experiment in a line: antimicrobial serial microdilution, A. niger. It counts as cell-based. Particulars: Aspergillus niger, ATCC6275; serial microdilution, 96-well plates, 35 °C, 48 h, max 2% DMSO. As for the experimental part: (§1) The in vitro antifungal and antimicrobial activities were determined by testing the Schiff bases against the fungi Saccharomyces cerevisiae, Candida albicans, and Aspergillus niger and the bacteria Staphylococcus aureus, Enterococcus faecalis (Gram-positive), Pseudomonas aeruginosa, and Escherichia coli (Gram-negative).
(§2) The bacterial inoculum was prepared by emulsifying overnight colonies from an agar medium in broth (Mueller–Hinton broth). The suspensions were adjusted to a final organism density of 5 × 10^5 colony former units (cfu)/mL. […] The emulsifying of A. niger cultures was done by pouring 5 mL of saline and 0.1% of polysorbate 80 over the Petri dishes. Then, 100 µL of this suspension were diluted in 5 mL of saline and adjusted to an optical density of 0.1 at 530 nm. For S. cerevisiae, fresh exponential YPAD (yeast extract 1%, peptone 2%, adenine 0.004%, […]) cultures were adjusted to an optical density of 0.5 at 600 nm, and then diluted to the equivalent of 1 × 10^4 cells/mL (10^−3 dilution). Stock solutions of Schiff bases were prepared by dissolving them in DMSO at 10 mg/mL. […] The range of concentrations used was empirically selected for each organisms and the Schiff base. Drug sensitivities were assayed by serial dilutions in 96-well plates as previously described. A row with media and cells but without drug was the positive control. The blank was done by preparing a row with media and drugs, but without cells. Plates were fitted with a tight lid before incubation to prevent desiccation. […] The minimum bactericidal concentration (MBC) and fungicidal concentration (MFC) were determined by spreading 100 µL of culture from each well onto a plate (Mueller–Hinton agar for bacteria, Sabouraud dextrose agar for fungi except S. cerevisiae, and YPAD for S. cerevisiae).
In general terms: Broth dilution looks for growth in wells or tubes with falling amounts of substance.

Data set [2] deals with Candida albicans ATCC 10231. The experiment in a line: antimicrobial serial microdilution, C. albicans. The format is cell-based. To be noted: Candida albicans, ATCC10231; serial microdilution, 35 °C, 48 h. As for the experimental part: as §1, §2
Data set [3] has as its system S. cerevisiae (backgrounds W303 and BY4741). The experiment in a line: antimicrobial serial microdilution, S. cerevisiae. The format is cell-based, Saccharomyces cerevisiae. Particulars: serial microdilution, 35 °C, 48 h. How it is done:
as §1, §2

The subject of data set [4] is Enterococcus faecalis ATCC 29212. The experiment in a line: antimicrobial serial microdilution, E. faecalis. The format is cell-based. To be noted: Enterococcus faecalis, ATCC29212; serial microdilution, 37 °C, 24 h. As for the experimental part: as §1, §2
Data set [5] relates to Staphylococcus aureus ATCC 29213. The experiment in a line: antimicrobial serial microdilution, S. aureus. The format is cell-based. Particulars: Staphylococcus aureus, ATCC29213; serial microdilution, 37 °C, 24 h. As for the experimental part: as §1, §2
Data set [6] concerns Escherichia coli ATCC 25922. The data set is described as follows: antimicrobial serial microdilution, E. coli. The format is cell-based. To be noted: serial microdilution, 37 °C, 24 h. How it is done:
as §1, §2

The test system of another data set is P. aeruginosa ATCC 27853. The data set is described as follows: antimicrobial serial microdilution, P. aeruginosa. The format is cell-based. To be noted: Pseudomonas aeruginosa, ATCC27853, 37 °C, 24 h. As for the experimental part: as §1, §2
Data set [7] concerns promastigotes from L. mexicana (M379). The experiment in a line: leishmanicidal activity, MTT colorimetric assay. The format is cell-based. To be noted: Leishmania mexicana, 48 h exposure, 1% DMSO. As for the experimental part: Leishmanicidal activities of all Schiff bases were evaluated by measuring promastigote mitochondrial activity using MTT colorimetric assay as described previously. […] The medium was renewed every four days. Parasite density was determined in a Neubauer chamber.
Into each well of a 96-well cell culture dish was dispensed 1 × 10^6 parasites. A stock solution of each of the Schiff Base was prepared in DMSO, and serial dilutions were added to the parasite suspension, keeping the solvent concentration at 1%. The final volume was 100 µL for each well and triplicate conditions were carried out. Pentamidine treatment (100 µg/mL) and untreated parasites were used as positive control and negative control, respectively. After exposure to the compounds for 48 h in culture medium, 10 µL of a solution of 5 mg/mL MTT dissolved in PBS was added to each well. […] Later, the plate was centrifuged at 4400 rpm for 10 min and the culture medium was then aspirated. Next, 100 µL of DMSO were added into each well to solubilize the formazan and the plate was shaken for 5 min. The colored formazan salt was measured by recording changes in absorbance at 570 nm using a microplate reader, a BioTek Synergy HT spectrophotometer. A reference wavelength of 630 nm was used to subtract background. Optical densities were analyzed as the quantity of formazan is directly proportional to the number of viable parasites. Data were analyzed with the statistical software GraphPad Prism.

Data set [8] can be described thus: DPPH radical scavenging assay. The format is biochemical. How it is done:
This was used immediately. The experimental procedure was adapted from the literature. Briefly, in a 96-well plate, 100 µL of solution of DPPH (2, 2-diphenyl-1-picrylhydrazyl) radical (0.2 mM in methanol) was added to 100 µL of methanolic solutions of 3a–j, 4, or 5, prepared as serial two-fold dilutions from the stock solution. Standards were also prepared in the same concentrations.
The percentage of DPPH scavenging was then calculated by using the following formula: % DPPH scavenging=100∗Asample+DPPH−Asample blank/ADPPH−Asolvent
(In general: The DPPH test is a chemical assay of radical scavenging.)

Data set [9] deals with S. cerevisiae wild type (BY4741). The experiment in a line: growth inhibition (OD600) of wild-type yeast, oxidative effect. It counts as cell-based, Saccharomyces cerevisiae. To be noted: unit not given. How it is done:
(§3) Next, we wanted to evaluate the oxidative activity. To do this, drop test assays were performed with wild-type (W303 and BY4741 backgrounds) and sod1 (BY4741 background) yeast cells in the presence of 200 µg/mL of the analyzed Schiff bases (Figure 3). The SOD1 gene encodes superoxide dismutase 1, an enzyme with a major role in detoxifying ROS species generated during metabolism or because of environmental exposure. sod1 mutant cells are unprotected against oxidative agents, decreasing survival in their presence.
(§4) (A) Drop test of serial dilution of yeast cell cultures (wild type from genetic background W303, wild type from genetic background BY4741, and sod1 mutant from genetic background BY4741) exposed to Schiff bases at 200 µg/mL. A control without drug and with 2% DMSO are included.
as §2

Data set [10] concerns S. cerevisiae sod1 mutant (BY4741). The experiment in a line: growth inhibition (OD600) of sod1 mutant yeast, oxidative effect. To be noted: sod1 mutant BY4741, unit not given. The format is cell-based, Saccharomyces cerevisiae. How it is done:
as §3, §4, §2

In data set [11] the test system is S. cerevisiae wild-type (W303 and BY4741 backgrounds). The experiment in a line: drop test, wild-type yeast. It counts as cell-based, Saccharomyces cerevisiae. Particulars: 200 µg/mL, 48 h, 25 °C. How it is done: Since the Schiff bases have a limited solubility in dimethyl sulfoxide (DMSO), first, we tested the toxicity of DMSO against the selected microorganism. […] Wild-type cells from W303 background seem to be more resistant, and sensitivity is observed at around 4% DMSO.
(§5) Next, we wanted to evaluate the oxidative activity. To do this, drop test assays were performed with wild-type (W303 and BY4741 backgrounds) and sod1 (BY4741 background) yeast cells in the presence of 200 µg/mL of the analyzed Schiff bases (Figure 3). The SOD1 gene encodes superoxide dismutase 1, an enzyme with a major role in detoxifying ROS species generated during metabolism or because of environmental exposure. sod1 mutant cells are unprotected against oxidative agents, decreasing survival in their presence. […] Also, wild-type cells are shown as control, unaffected by the Schiff bases.
(§6) For the drop test with S. cerevisiae, wild-type strain (background W303), and wild type and sod1 mutant cells (background BY4741) were grown overnight in YPAD media until an optical density of 0.5 at 600 nm was reached (equivalent to 1 × 10^7 cells/mL). Three serial dilutions were prepared and 5 µL of each was spotted onto a plate (approximately 1 × 10^5, 1 × 10^4, 1 × 10^3, and 1 × 10^2 cells/spot). YPAD plates were supplemented with 200 µg/mL of each Schiff base, and one plate supplemented with 2% DMSO and one plate with YPAD without any drug were used as controls. Plates were incubated at 25 °C for 24, 48, and 72 h.

Data set [12] deals with S. cerevisiae sod1 mutant cells (background BY4741). The experiment in a line: drop test, sod1 mutant yeast. It counts as cell-based, Saccharomyces cerevisiae. To be noted: 200 µg/mL, 48 h, 25 °C, compared to control. As for the experimental part: as §5, §6
The subject of a further data set is S. cerevisiae. The experiment in a line: biocidal/biostatic evaluation, plating on drug-free media, S. cerevisiae. It counts as cell-based, Saccharomyces cerevisiae. To be noted: 24 h exposure, then plated on media free of drug. As for the experimental part:
as §2, with “cells.” for “cells. Plates were fitted with a tight lid before incubation to prevent desiccation.”

With `Cc1c(N=CC=Cc2ccccc2)c(=O)n(-c2ccccc2)n1C` [Compound 5, 4-Phenylallylideneamino-1,5-dimethyl-2-phenyl-1H-pyrazol-3(2H)-one], the melting point was in the range of 165.5 to 165.9 °C. The MIC in data set [1] was above 200 mg/L. In data set [2], this molecule displayed a minimal inhibitory concentration (MIC) above 200 mg/L. In [3] (Saccharomyces cerevisiae, read-out: IC50 S. cerevisiae (converted)), the IC50 is 22.8 mg/L (≈ 71.8 µM). Also, the MIC in [3] (Saccharomyces cerevisiae, read-out: MIC S. cerevisiae) was determined as 76.7 ± 5.7 mg/L (≈ 242 µM). For the same molecule, in data set [3] (noninhibitory concentration), the “NIC S. cerevisiae” value amounted to 6.6 ± 0.7 µg/mL. The same molecule had an MIC in data set [4] above 200 mg/L. The molecule further showed an MIC in data set [5] above 200 mg/L. Further, in [6] (Escherichia coli, ATCC25922), the IC50 was 12.4 mg/L (≈ 39.1 µM) and the MIC was 22.6 ± 14.1 mg/L (≈ 71.2 µM). For the same molecule, the “NIC E. coli” value in data set [6] (noninhibitory concentration) came to 5.1 ± 2.4 µg/mL. Besides, the MIC with P. aeruginosa ATCC 27853 was above 200 mg/L. Besides, the IC50 in data set [7] amounted to 81.5 ± 12.5 µM. The IC50 in data set [8] (30 min, room temperature, dark, absorbance 515 nm) is above 200 µM. In addition, the “antioxidant activity detected in the DPPH assay” value in [8] (statement in words) is on record as “no significant antioxidant activity”. For the same molecule, the “NIC Wt” value in data set [9] is given as 22.6 ± 0.6. For the same molecule, in [9] (in µg/mL), the “MIC Wt” value worked out at 65.2 ± 0.2. The “NIC sod1” value in [10] was 19.5 ± 0.8. In addition, the “MIC sod1” value in [10] (in µg/mL) worked out at 39.4 ± 0.9. Also, the “effect on wild-type cells in drop test” value in data set [11] was “unaffected”. Moreover, the “sensitivity of sod1 cells in drop test” value in data set [12] was “sensitive”. Besides, the “inhibitory mechanism (fungicidal or fungistatic)” value in the data set on S. cerevisiae was “fungicidal”.

The values are drawn from article PMC6696115, “Characterization of Antimicrobial, Antioxidant, and Leishmanicidal Activities of Schiff Base Derivatives of 4-Aminoantipyrine” (Molecules, 2019).
